According to ChEMBL document CHEMBL1201862, “PubChem BioAssay data set” (2004):
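Assay format: 96-well plates, 48-hour exposure. The concentration for 50% growth inhibition is given as GI50.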 The source made the active and inactive calls. No stated cut-off is given here; in the data, active = GI50 up to about 1.1 µM and inactive = higher.

Tests used:
Assay in all cases: growth of human tumour cells (NCI), 48 h
786-0 = test system: 786-0
BT-549 = test system: BT-549
NCI-H226 = test system: NCI-H226
CAKI-1 = test system: CAKI-1
Hs-578T = test system: Hs-578T
SF-295 = test system: SF-295
RPMI-8226 = test system: RPMI-8226
UACC-257 = test system: UACC-257
A498 = test system: A498
HCT-116 = test system: HCT-116
UO-31 = test system: UO-31
SF-539 = test system: SF-539
PC-3 = test system: PC-3
OVCAR-5 = test system: OVCAR-5
DU-145 = test system: DU-145
OVCAR-8 = test system: OVCAR-8
ACHN = test system: ACHN
OVCAR-3 = test system: OVCAR-3
RXF 393 = test system: RXF 393
Malme-3M = test system: Malme-3M

Measured: GI50

Cc1cn(C(CO)OC(CO)CN(O)C2C3CC4CC(C3)CC2C4)c(=O)[nH]c1=O (stereo not drawn)
inactive: 786-0 > 100 µM | BT-549 > 100 µM | NCI-H226 > 100 µM | CAKI-1 > 100 µM | Hs-578T > 100 µM | SF-295 > 100 µM | RPMI-8226 > 100 µM | UACC-257 > 100 µM | A498 > 100 µM | HCT-116 > 100 µM | UO-31 > 100 µM | SF-539 > 100 µM | PC-3 > 100 µM | OVCAR-5 > 100 µM | DU-145 > 100 µM | OVCAR-8 > 100 µM | ACHN > 100 µM

O=S(=O)(O)c1cc(S(=O)(=O)O)c2cc(/N=N/c3c(O)ccc4ccccc34)ccc2c1
inactive: 786-0 > 100 µM | OVCAR-3 > 100 µM | BT-549 > 100 µM | NCI-H226 > 100 µM | CAKI-1 > 100 µM | RXF 393 > 100 µM | Hs-578T > 100 µM | SF-295 > 100 µM | RPMI-8226 > 100 µM | UACC-257 > 100 µM | HCT-116 > 100 µM | UO-31 > 100 µM | PC-3 > 100 µM | Malme-3M 50.7 µM | OVCAR-5 > 100 µM | DU-145 > 100 µM | OVCAR-8 > 100 µM | ACHN > 100 µM

O=P(O)(O)CN1CCNCCN(CP(=O)(O)O)CCNCC1
inactive: 786-0 > 30.8 µM | OVCAR-3 > 100 µM | BT-549 > 100 µM | CAKI-1 > 47.8 µM | RXF 393 > 100 µM | Hs-578T > 100 µM | SF-295 > 100 µM | RPMI-8226 5.97 µM | UACC-257 41.8 µM | A498 8.36 µM | HCT-116 4.39 µM | UO-31 > 100 µM | SF-539 11.7 µM | PC-3 24.9 µM | Malme-3M 20.9 µM | OVCAR-5 10 µM | DU-145 > 100 µM | OVCAR-8 6.68 µM | ACHN > 100 µM

NC(=O)/C=c1/c2ccccc2n2nc3ccccc3c12
inactive: 786-0 8.67 µM | OVCAR-3 15.7 µM | BT-549 29.9 µM | CAKI-1 20.1 µM | RXF 393 17.1 µM | Hs-578T 31.2 µM | SF-295 31.1 µM | RPMI-8226 4.98 µM | UACC-257 20.3 µM | A498 32.1 µM | HCT-116 4.82 µM | UO-31 19.2 µM | SF-539 13.3 µM | PC-3 11 µM | Malme-3M 21.9 µM | OVCAR-5 29.9 µM | DU-145 37.8 µM | OVCAR-8 8.71 µM | ACHN 13.6 µM
